Source: patent publication US12274689B2, “Compound for the management of feline diabetes” (INCREVET, INC., priority 2019, dated 2025)
Marks after values point to notes of the source that are not given here.

Tests used:
[1] = system: ZDF rats; experiment: plasma glucose in male Zucker Diabetic Fatty rats, daily oral dosing (study 338); format: in vivo; conditions: for plasma glucose levels / plasma glucose levels, Day 21 Δ: male ZDF rats; for plasma glucose levels, Day 21 Δ: change Day 0 to Day 21
[2] = system: healthy purpose-bred cats; experiment: urinary glucose excretion in healthy cats after capsule dosing (studies 1 and 2); format: in vivo, cat
[3] = target: T1, human SGLT2 (Homo sapiens, UniProt P31639); experiment: selectivity for human SGLT2 compared to human SGLT1
T1 sequence (P31639 1-672): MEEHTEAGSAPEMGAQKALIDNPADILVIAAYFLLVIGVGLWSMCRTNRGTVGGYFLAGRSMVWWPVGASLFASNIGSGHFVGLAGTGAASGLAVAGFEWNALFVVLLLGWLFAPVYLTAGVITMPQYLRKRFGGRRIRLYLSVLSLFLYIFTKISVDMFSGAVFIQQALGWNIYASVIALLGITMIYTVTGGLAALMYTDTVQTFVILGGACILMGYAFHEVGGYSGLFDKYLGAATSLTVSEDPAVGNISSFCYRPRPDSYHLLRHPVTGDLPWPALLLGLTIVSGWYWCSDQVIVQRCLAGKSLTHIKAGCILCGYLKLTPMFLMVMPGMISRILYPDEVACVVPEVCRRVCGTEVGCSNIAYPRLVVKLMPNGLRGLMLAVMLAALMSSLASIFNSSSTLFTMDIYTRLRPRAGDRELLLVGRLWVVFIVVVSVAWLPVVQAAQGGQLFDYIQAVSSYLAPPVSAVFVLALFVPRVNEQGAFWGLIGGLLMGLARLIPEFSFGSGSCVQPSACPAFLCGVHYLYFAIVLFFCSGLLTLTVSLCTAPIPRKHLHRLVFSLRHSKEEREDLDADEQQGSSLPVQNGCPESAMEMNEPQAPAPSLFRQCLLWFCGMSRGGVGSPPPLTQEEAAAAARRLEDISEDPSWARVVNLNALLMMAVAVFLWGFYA

[4] = system: db/db mice; experiment: non-fasting blood glucose in db/db mice, 28-day oral dosing (study 350); format: in vivo; conditions: for non-fasting blood glucose concentration: n = 8

doses with undesired effects attributed to SGLT1 inhibition, multiple of doses producing the maximum pharmacodynamic effect ([2]; healthy cats): 5 to 10 times
selectivity for human SGLT2 compared to human SGLT1 [3]: 2400 fold
SMILES: OC[C@H]1O[C@@H](c2ccc(Cl)c(Cc3ccc(OCCOC4CC4)cc3)c2)[C@H](O)[C@@H](O)[C@@H]1O [bexagliflozin, (2S,3R,4R,5S,6R)-2-(4-chloro-3-(4-(2-cyclopropoxyethoxy)benzyl)phenyl)-6-(hydroxymethyl)tetrahydro-2H-pyran-3,4,5-triol]
change in plasma glucose levels ([1]; ZDF rats, after 7 days, 0.067 mg kg^−1): +2.8%
change in plasma glucose levels ([1]; ZDF rats, after 7 days, 0.2 mg kg^−1): −16.8%
change in plasma glucose levels ([1]; ZDF rats, after 7 days, 0.67 mg kg^−1): −17.1%
change in plasma glucose levels ([1]; ZDF rats, after 7 days, 2.0 mg kg^−1): −25.3%
change in plasma glucose levels ([1]; ZDF rats, after 14 days, 0.067 mg kg^−1): +9.5%
change in plasma glucose levels ([1]; ZDF rats, after 14 days, 0.2 mg kg^−1): −5.6%
change in plasma glucose levels ([1]; ZDF rats, after 14 days, 0.67 mg kg^−1): −8.1%
change in plasma glucose levels ([1]; ZDF rats, after 14 days, 2.0 mg kg^−1): −25.1%
change in plasma glucose levels ([1]; ZDF rats, after 21 days, 0.067 mg kg^−1): +15.5%
change in plasma glucose levels ([1]; ZDF rats, after 21 days, 0.2 mg kg^−1): +4.3%
change in plasma glucose levels ([1]; ZDF rats, after 21 days, 0.67 mg kg^−1): +1.5%
change in plasma glucose levels ([1]; ZDF rats, after 21 days, 2.0 mg kg^−1): −15.4%
blood glucose, level below which it was not reduced ([1]; ZDF rats, sole agent, any dose group): ≥ 287 mg/dL
plasma glucose levels ([1]; 0.067 mg kg^−1 oral once daily, Day 0): 373.2 ± 29.5 mg/dL
plasma glucose levels ([1]; 0.067 mg kg^−1 oral once daily, Day 7): 383.7 ± 33.1 mg/dL
plasma glucose levels ([1]; 0.067 mg kg^−1 oral once daily, Day 14): 408.6 ± 19.6 mg/dL
plasma glucose levels ([1]; 0.067 mg kg^−1 oral once daily, Day 21): 431.0 ± 19.7 mg/dL
plasma glucose levels, Day 21 Δ ([1]; 0.067 mg kg^−1 oral once daily): +57.8 ± 41.7 mg dL^−1
plasma glucose levels ([1]; 0.2 mg kg^−1 oral once daily, Day 0): 386.6 ± 28.2 mg/dL
plasma glucose levels ([1]; 0.2 mg kg^−1 oral once daily, Day 7): 321.8 ± 19.5 mg/dL
plasma glucose levels ([1]; 0.2 mg kg^−1 oral once daily, Day 14): 364.9 ± 13.1 mg/dL
plasma glucose levels ([1]; 0.2 mg kg^−1 oral once daily, Day 21): 403.2 ± 20.1 mg/dL
plasma glucose levels, Day 21 Δ ([1]; 0.2 mg kg^−1 oral once daily): +16.6 ± 36.6 mg dL^−1
plasma glucose levels ([1]; 0.67 mg kg^−1 oral once daily, Day 0, n = 10): 384.4 ± 27.5 mg/dL
plasma glucose levels ([1]; 0.67 mg kg^−1 oral once daily, Day 7): 318.7 ± 32.0 mg/dL
plasma glucose levels ([1]; 0.67 mg kg^−1 oral once daily, Day 14): 353.4 ± 18.9 mg/dL
plasma glucose levels ([1]; 0.67 mg kg^−1 oral once daily, Day 21, n = 9): 374.2 ± 37.3 mg/dL
plasma glucose levels, Day 21 Δ ([1]; 0.67 mg kg^−1 oral once daily, n = 9): +5.4 ± 30.8^b mg dL^−1
plasma glucose levels ([1]; 2 mg kg^−1 oral once daily, Day 0): 384.8 ± 16.5 mg/dL
plasma glucose levels ([1]; 2 mg kg^−1 oral once daily, Day 7): 287.4 ± 27.4 mg/dL
plasma glucose levels ([1]; 2 mg kg^−1 oral once daily, Day 14): 288.3 ± 17.1 mg/dL
plasma glucose levels ([1]; 2 mg kg^−1 oral once daily, Day 21): 325.4 ± 13.0 mg/dL
plasma glucose levels, Day 21 Δ ([1]; 2 mg kg^−1 oral once daily): -59.4 ± 22.4 mg/dL
loose stools and/or diarrhea ([2]; healthy cats exposed to the higher quantities): dose-dependent increase in the severity of loose stools and/or diarrhea
dose at which the maximum glucosuria was observed ([2]; healthy cats, gelatin capsules, urinary glucose excretion over 24 h after dosing): approximately 3 mg kg^−1
non-fasting blood glucose concentration ([4]; 0.067 mg kg^−1 oral once a day, Day 0, mean ± SD): 565.5 ± 75.9 mg/dL
non-fasting blood glucose concentration ([4]; 0.067 mg kg^−1 oral once a day, Day 1, 6 h post-dose, mean ± SD): 526.0 ± 97.0 mg/dL
non-fasting blood glucose concentration ([4]; 0.067 mg kg^−1 oral once a day, Day 7, 6 h post-dose, mean ± SD): 459.5 ± 69.9 mg/dL
non-fasting blood glucose concentration ([4]; 0.067 mg kg^−1 oral once a day, Day 14, 6 h post-dose, mean ± SD): 441.7 ± 119.6 mg/dL
non-fasting blood glucose concentration ([4]; 0.067 mg kg^−1 oral once a day, Day 21, 6 h post-dose, mean ± SD): 497.5 ± 98.8 mg/dL
non-fasting blood glucose concentration ([4]; 0.067 mg kg^−1 oral once a day, Day 28, 6 h post-dose, mean ± SD): 472.1 ± 113.3 mg/dL
non-fasting blood glucose concentration ([4]; 0.067 mg kg^−1 oral once a day, Day −3, mean ± SD): 563.6 ± 105.2 mg/dL
non-fasting blood glucose concentration ([4]; 0.2 mg kg^−1 oral once a day, Day 0, mean ± SD): 590.0 ± 92.9 mg/dL
non-fasting blood glucose concentration ([4]; 0.2 mg kg^−1 oral once a day, Day 1, 6 h post-dose, mean ± SD): 411.3 ± 86.8 mg/dL
non-fasting blood glucose concentration ([4]; 0.2 mg kg^−1 oral once a day, Day 7, 6 h post-dose, mean ± SD): 390.8 ± 92.3 mg/dL
non-fasting blood glucose concentration ([4]; 0.2 mg kg^−1 oral once a day, Day 14, 6 h post-dose, mean ± SD): 364.7 ± 121.6 mg/dL
non-fasting blood glucose concentration ([4]; 0.2 mg kg^−1 oral once a day, Day 21, 6 h post-dose, mean ± SD): 379.8 ± 47.4 mg/dL
non-fasting blood glucose concentration ([4]; 0.2 mg kg^−1 oral once a day, Day 28, 6 h post-dose, mean ± SD): 333.5 ± 79.9 mg/dL
non-fasting blood glucose concentration ([4]; 0.2 mg kg^−1 oral once a day, Day −3, mean ± SD): 546.9 ± 92.8 mg/dL
non-fasting blood glucose concentration ([4]; 0.67 mg kg^−1 oral once a day, Day 0, mean ± SD): 574.4 ± 90.5 mg/dL
non-fasting blood glucose concentration ([4]; 0.67 mg kg^−1 oral once a day, Day 1, 6 h post-dose, mean ± SD): 404.3 ± 86.4 mg/dL
non-fasting blood glucose concentration ([4]; 0.67 mg kg^−1 oral once a day, Day 7, 6 h post-dose, mean ± SD): 370.1 ± 96.5 mg/dL
non-fasting blood glucose concentration ([4]; 0.67 mg kg^−1 oral once a day, Day 14, 6 h post-dose, mean ± SD): 379.6 ± 58.6 mg/dL
non-fasting blood glucose concentration ([4]; 0.67 mg kg^−1 oral once a day, Day 21, 6 h post-dose, mean ± SD): 300.6 ± 97.6 mg/dL
non-fasting blood glucose concentration ([4]; 0.67 mg kg^−1 oral once a day, Day 28, 6 h post-dose, mean ± SD): 306.7 ± 98.4 mg/dL
non-fasting blood glucose concentration ([4]; 0.67 mg kg^−1 oral once a day, Day −3, mean ± SD): 565.5 ± 87.5 mg/dL
non-fasting blood glucose concentration ([4]; 2 mg kg^−1 oral once a day, Day 0, mean ± SD): 541.6 ± 84.4 mg/dL
non-fasting blood glucose concentration ([4]; 2 mg kg^−1 oral once a day, Day 1, 6 h post-dose, mean ± SD): 382.7 ± 111.9 mg/dL
non-fasting blood glucose concentration ([4]; 2 mg kg^−1 oral once a day, Day 7, 6 h post-dose, mean ± SD): 330.8 ± 101.1 mg/dL
non-fasting blood glucose concentration ([4]; 2 mg kg^−1 oral once a day, Day 14, 6 h post-dose, mean ± SD): 303.5 ± 74.0 mg/dL
non-fasting blood glucose concentration ([4]; 2 mg kg^−1 oral once a day, Day 21, 6 h post-dose, mean ± SD): 319.7 ± 74.2 mg/dL
non-fasting blood glucose concentration ([4]; 2 mg kg^−1 oral once a day, Day 28, 6 h post-dose, mean ± SD): 315.2 ± 81.3 mg/dL
non-fasting blood glucose concentration ([4]; 2 mg kg^−1 oral once a day, Day −3, mean ± SD): 603.9 ± 88.9 mg/dL
blood glucose values, % of control ([4]; 28-day administration of 0.067 mg kg^−1): 79.74%
blood glucose values, % of control ([4]; 28-day administration of 0.2 mg kg^−1): 56.33%
blood glucose values, % of control ([4]; 28-day administration of 0.67 mg kg^−1): 51.81%
blood glucose values, % of control ([4]; 28-day administration of 2 mg kg^−1): 53.25%
blood glucose, level below which it was not reduced ([4]; sole agent, any dose group): ≥ 300 mg/dL
